{"source": "patent US20260364040A1", "about": "“MONO- AND BIS-NITROSYLATED PROPANEDIOLS FOR USE IN THE TREATMENT OF A THROMBOEMBOLIC DISEASE” (ATTGENO AB, priority 2023, published 2026)", "key": {"[1]": {"assay": "Circulation times and in vivo half-life estimation from injections and infusions", "parameters": "species or system pig", "method": "Intraarterial injections in the left CCA and left CFA and central intravenous injections (PDNO 0.5-4 micromol) were used to estimate in vivo half-life of PDNO in anesthetized, instrumented pigs (n=2). Regional blood flow, mean systemic arterial pressure (MAP), end-tidal nitric oxide (ETNO) and arterial blood gases were measured.\nIn addition, 10 ml of 5% sodium bicarbonate solution was injected at these sites.\nBetween the local intraarterial infusion routes, intravenous infusions in the central venous catheter at four doses (3, 10, 30 and 100 nmol kg^−1 min^−1, 10 minutes per dose) were given for reference. There was a washout period of 60 minutes between the PDNO administration.\nPrimary outcome was effects on regional blood flow, systemic blood pressure and end-tidal nitric oxide (ETNO). […]\nThe median (25-75 percentiles) circulation times from the carotid and femoral intraarterial injection sites were to first exhalation with increased ETNO 13.5 s (12.3-15.4, n=13) s and 13.7 s (12.9-15.2, n=9), respectively, and from the central intravenous injection site 5.0 s (4.3-5.9, n=29) and 5.3 s (3.3-5.8, n=9). The circulation times between the carotid and femoral intraarterial injection sites to the central intravenous injection site were calculated to 8.5 s and 8.4 s as depicted in Table 1 below."}, "[2]": {"conditions": "rabbit model, Cederqvist et al. 1994; cited from earlier work"}, "[3]": {"test_system": "SFLLRN (PAR-1 agonist) stimulated platelets in human whole blood", "assay": "Platelet aggregation in human whole blood (impedance, Multiplate aggregometer)", "format": "cell-based", "conditions": "drug added 2 min prior to SFLLRN, impedance 10 min, AUC, n=4", "method": "FIG. 8: Platelet aggregation in whole blood. Suspensions of human blood were stimulated by the PAR-1 agonist […] in the absence (open bar) and presence of either PDNO (black bar) or nitroglycerine (grey bar). The NO-donating drugs were introduced to the blood 2 min prior to SFLLRN. Platelet aggregation response was analysed as increases in impedance over a period of 10 min and is expressed as area under the curve. The bars represent mean value and standard deviation (n=4).\nPotential anti-thrombotic effect of PDNO in vitro was evaluated by analysing aggregation responses to the thrombin mimetic hexapeptide SFLLRN. […]\nHeparinized human or pig blood (0.5 ml) was diluted 1:1 with Krebs-Ringer glucose (KRG) buffer (isotone saline, pH 7.4). […] Platelet aggregation in vitro (human blood) and ex vivo (pig blood) was measured as increase in electrical impedance between two platinum electrodes. […]\nIn the in vitro experiments, PDNO or nitroglycerine (used as control drug) was introduced 2 min prior to the hexapeptide SFLLRN. […] Aggregation responses were registered during 10 min and expressed as area under curve.\nPlatelet aggregation in whole blood (human blood with heparin as anticoagulant) was analysed as increases in electrical resistance (impedance changes between two platinum electrodes) using a Multiplate aggregometer."}, "[4]": {"test_system": "VASP (Ser239 phosphorylation), NO/cyclic GMP signalling in human platelets", "assay": "Ser239-specific VASP phosphorylation in isolated human platelets (Western blotting)", "format": "cell-based", "conditions": "5 min exposure, unstimulated and SFLLRN-stimulated platelets, n=3", "method": "FIG. 9: Increases in Ser 239-specific VASP phosphorylation in platelets. Suspensions of isolated human blood platelets were stimulated by either PDNO or nitroglycerine. The platelets were exposed to the NO-donors for 5 min followed by Western immuno blotting for phosphoVASP detection. These experiments were conducted in unstimulated and SFLLRN-stimulated platelets. The PAR-1 agonist was added 2 min after PDNO/nitroglycerine. The bars represent mean value and standard deviation (n=3).\nIn platelets and vascular smooth muscle cells, the cytoskeleton-binding protein vasodilator-stimulated phosphoprotein (VASP) is a main molecular target for NO/cyclic GMP signalling pathway. Ser239 specific phosphorylation of VASP following NO exposure of platelets is believed to be a pivotal molecular mechanism underlying anti-aggregatory/antithrombotic effects of NO. The effect of PDNO on Ser239-specific VASP phosphorylation was analysed by Western (immuno) blotting.\nAliquots of isolated platelet suspensions were exposed to either PDNO or nitroglyceine for 5 min. This series of experiments were conduced both on resting and SFLLRN-stimulated platelets.\nSpecifically, NO/cyclic GMP-induced phosphorylation of Ser239 on vasodilator-stimulated phosphoproteins (VASP) was detected by Western blotting. […]"}}}
{"smiles": "O=C([O-])O.[Na+]", "note": "[Sodium bicarbonate]", "values": [{"measurement": "Circulation time (median) between intraarterial and intravenous injection site", "setting": "[1]; carotid artery and intravenous", "value": 7.0, "unit": "s"}, {"measurement": "Circulation time (median) between intraarterial and intravenous injection site", "setting": "[1]; femoral artery and intravenous", "value": 8.9, "unit": "s"}]}
{"smiles": "CCCCON=O", "note": "[butyl nitrite]", "values": [{"measurement": "correlation between in vivo generation of NO and effects on blood pressure", "setting": "[2]", "value": "significant correlation between the in vivo generation of NO and effects on blood pressure"}]}
{"smiles": "CCON=O", "note": "[ethyl nitrite]", "values": [{"measurement": "correlation between in vivo generation of NO and effects on blood pressure", "setting": "[2]", "value": "significant correlation between the in vivo generation of NO and effects on blood pressure"}]}
{"smiles": "CC(C)CCON=O", "note": "[isoamyl nitrite]", "values": [{"measurement": "correlation between in vivo generation of NO and effects on blood pressure", "setting": "[2]", "value": "significant correlation between the in vivo generation of NO and effects on blood pressure"}]}
{"smiles": "CC(C)CO[N+](=O)[O-]", "note": "[isobutyl nitrate]", "values": [{"measurement": "correlation between in vivo generation of NO and effects on blood pressure", "setting": "[2]", "value": "significant correlation between the in vivo generation of NO and effects on blood pressure"}]}
{"smiles": "CC(C)CON=O", "note": "[isobutyl nitrite]", "values": [{"measurement": "correlation between in vivo generation of NO and effects on blood pressure", "setting": "[2]", "value": "significant correlation between the in vivo generation of NO and effects on blood pressure"}]}
{"smiles": "O=[N+]([O-])OCC(CO[N+](=O)[O-])O[N+](=O)[O-]", "note": "[nitroglycerine, 1,2,3-propanetriol-nitrate]", "values": [{"measurement": "correlation between in vivo generation of NO and effects on blood pressure", "setting": "[2]", "value": "significant correlation between the in vivo generation of NO and effects on blood pressure"}, {"measurement": "SFLLRN-induced platelet aggregation, whole blood", "setting": "[3]", "value": "not nitroglycerine significantly inhibited SFLLRN-induced platelet aggregation"}, {"measurement": "Ser239-specific VASP phosphorylation", "setting": "[4]", "value": "not nitroglycerine provoked a significant increase in Ser239-specific VASP phosphorylation"}]}
